Measurements as given in ChEMBL document CHEMBL4229409, “Rational design of novel irreversible inhibitors for human arginase” (Bioorg Med Chem, 2018).
Active and inactive are the calls of the source. The calls are words filed in the database; no cut-off is given here.

Columns and labels:
[1] = target: T1, Arginase-1 (Homo sapiens) (UniProt P05089); assay: Irreversible inhibition of human arginase 1 assessed as inactivation rate constant using thioarginine as substrate measured up to 360 mins by UV micro plate method
T1 sequence (whole entry): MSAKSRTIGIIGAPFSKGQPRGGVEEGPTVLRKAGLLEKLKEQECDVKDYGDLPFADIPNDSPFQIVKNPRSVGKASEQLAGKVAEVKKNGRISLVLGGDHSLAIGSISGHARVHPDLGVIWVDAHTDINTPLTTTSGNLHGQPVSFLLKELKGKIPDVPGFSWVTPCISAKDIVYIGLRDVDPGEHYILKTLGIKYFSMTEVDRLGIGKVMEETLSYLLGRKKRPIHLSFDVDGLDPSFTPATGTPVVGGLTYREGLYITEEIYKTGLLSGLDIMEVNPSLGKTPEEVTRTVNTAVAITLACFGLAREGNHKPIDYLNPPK

[2] = target: T2, Arginase-1 (Homo sapiens, UniProt P05089); assay: Irreversible inhibition of human arginase 1 using thioarginine as substrate measured up to 360 mins by UV micro plate method
T2 sequence (P05089 whole entry): T1 sequence (whole entry)

[3] = target: T1, Arginase-1 (Homo sapiens); assay: Binding affinity to human arginase 1 at Thr135 residues preincubated with compound at 500 uM followed by chymotrypsin addition measured after 16 hrs by tandem mass spectrometric method
[4] = target: T3, Arginase-2, mitochondrial (Homo sapiens, UniProt P78540); assay: Irreversible inhibition of human arginase 2 using thioarginine as substrate measured up to 360 mins by UV micro plate method
T3 sequence (P78540 whole entry): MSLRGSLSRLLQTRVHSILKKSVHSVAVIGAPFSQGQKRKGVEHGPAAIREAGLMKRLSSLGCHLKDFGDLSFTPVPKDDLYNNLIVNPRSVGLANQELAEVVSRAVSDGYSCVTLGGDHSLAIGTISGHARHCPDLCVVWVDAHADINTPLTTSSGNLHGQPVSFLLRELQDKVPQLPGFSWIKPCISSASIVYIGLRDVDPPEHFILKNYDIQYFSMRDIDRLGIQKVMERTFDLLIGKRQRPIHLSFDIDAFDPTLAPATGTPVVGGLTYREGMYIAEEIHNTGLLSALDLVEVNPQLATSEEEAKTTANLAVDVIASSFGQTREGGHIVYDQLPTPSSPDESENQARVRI

[5] = target: T4, Arginase-2, mitochondrial (Homo sapiens) (UniProt P78540); assay: Irreversible inhibition of human arginase 2 assessed as inactivation rate constant using thioarginine as substrate measured up to 360 mins by UV micro plate method
T4 sequence (whole entry): T3 sequence (P78540 whole entry)

[6] = Reversible inhibition of human arginase using thioarginine as substrate measured up to 360 mins by UV micro plate method

Kinact [1] [min⁻¹] | Ki [2] [µM] | Activity [3] | Ki [4] [µM] | Kinact [5] [min⁻¹] | Ki [6] [µM] | Compound
0.029 to 0.031 | 275 to 307 | Active | 322 | 0.048 |  | N=C(N)Nc1ccc(C(F)C(=O)O)cc1 (stereo not given)
0.032 | 382 |  | 437 | 0.033 |  | CC(=O)OC(C(=O)O)c1ccc(NC(=N)N)cc1 (stereo not given)
 |  |  |  |  | 20 | N[C@@H](CSCCB(O)O)C(=O)O
